Measured values taken from PubChem BioAssay AID2750 (The Scripps Research Institute Molecular Screening Center, 2010).
“And” between values parts separate entries of the source, which are not always exact repeats. Equal values may be shown once.

test system: DLD-1 KLF5 promoter-luciferase reporter, luminescence; test: KLF5 promoter reporter inhibitors, late-stage follow-up, luminescence, DLD-1 cells, powder samples (AID 2750);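 active = compounds whose IC50 against KLF5 promoter reporter light is 10 micromolar or lower; inactive = the rest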

IC50, active:
CC(C)(C)c1ccc(C(=O)O/N=C(\N)c2ccccn2)cc1 595 nM
COc1ccc(OCc2cccc(C(=O)Nn3cc([N+](=O)[O-])cn3)c2)cc1 357 nM
CCCc1ccc(-c2ccc(/C=C/C(=O)O)cc2)nc1 75.2 nM
Cc1ccc2nc(NC(=O)CCCc3nc4ccccc4s3)sc2c1 180 nM
O=C(NCCc1ccccc1F)c1ccc2c(c1)OCCO2 162 nM
COc1cccc(C=NNc2ccc(C(=O)O)cc2)c1O 10.4 nM
c1ccc(-c2ccc(-c3nc(-c4ccccn4)no3)cc2)cc1 285 nM
CN1CCN(c2ccc(-c3ccc4ccccc4n3)cc2)CC1 27.1 nM
CC(C)(C)c1ccc(-c2noc(CCC(=O)Nc3cccnc3)n2)cc1 71.8 nM and 57.2 nM
CN(C(=O)COC(=O)/C=C/c1cccc([N+](=O)[O-])c1)C1CCS(=O)(=O)C1 (stereo unspecified) 603 nM
Cc1cc(C(=O)CN2C(=O)c3ccccc3S2(=O)=O)c(C)n1CC1CCCO1 (stereo unspecified) 67.6 nM
O=C(NCCc1ccccc1)c1ccc2c(c1)OCCCO2 217 nM
CCOC(=O)c1sc(NC(=O)c2cc3c(s2)CCC(C)C3)nc1C (stereo unspecified) 20.1 nM
COc1ccc(C(=O)Nc2ccccc2C(=O)NN=Cc2ccc(O)c(OC)c2)cc1 11.3 nM
CCOC(=O)c1sc(NC(=O)c2ccc3ncsc3c2)nc1C 22.1 nM and 18.7 nM
CCCc1ccc(C(=O)O/N=C(\N)c2ccccn2)cc1 132 nM
